How the values were obtained:
HDAC3/NcoR2 complex = biological target: T1, HDAC3/NcoR2 complex (Homo sapiens, UniProt O15379); assay: HDAC-Glo I/II enzymatic assay, HDAC3; type: biochemical; conditions: read-out: HDAC3 pIC50 (converted)
T1 construct: purchased BPS Bioscience 50003
Procedure: (§1) Inhibitors were tested at eight serial dilutions in triplicate ranging from 50 μM–86,7 pM (HDAC6) or 100 μM–8,67 nM (HDAC1,2,3,8). Drug dosing was performed from 10 mM and 0.1 mM DMSO stock solutions with a D300e Digital Dispenser (Tecan). HDACs (7 ng/mL for HDAC1, 10 ng/mL for HDAC2, 200 ng/mL for HDAC3/Ncor2 complex, 100 ng/mL for HDAC6, 200 ng/mL for HDAC8) and inhibitors were incubated together for 30 min at room temperature. After addition of the HDAC‐Glo™ I/II reagent, plates were shaken (800 rpm orbital shaker, 30 s), centrifuged (300 g, 1 min) and incubated at room temperature for 30 min. Luminescence was detected with a CLARIOstar (BMG Labtech) plate reader.

HDAC1 = biological target: T2, HDAC1 (Homo sapiens, UniProt Q13547); assay: HDAC-Glo I/II enzymatic assay, HDAC1; type: biochemical; conditions: read-out: HDAC1 pIC50 (converted)
T2 construct: purchased BPS Bioscience 50051
Procedure: as §1

HDAC8 = biological target: T3, HDAC8 (Homo sapiens, UniProt Q9BY41); assay: HDAC-Glo I/II enzymatic assay, HDAC8; type: biochemical; conditions: read-out: HDAC8 pIC50 (converted)
T3 construct: purchased BPS Bioscience 50008
T3 sequence (Q9BY41 1-377): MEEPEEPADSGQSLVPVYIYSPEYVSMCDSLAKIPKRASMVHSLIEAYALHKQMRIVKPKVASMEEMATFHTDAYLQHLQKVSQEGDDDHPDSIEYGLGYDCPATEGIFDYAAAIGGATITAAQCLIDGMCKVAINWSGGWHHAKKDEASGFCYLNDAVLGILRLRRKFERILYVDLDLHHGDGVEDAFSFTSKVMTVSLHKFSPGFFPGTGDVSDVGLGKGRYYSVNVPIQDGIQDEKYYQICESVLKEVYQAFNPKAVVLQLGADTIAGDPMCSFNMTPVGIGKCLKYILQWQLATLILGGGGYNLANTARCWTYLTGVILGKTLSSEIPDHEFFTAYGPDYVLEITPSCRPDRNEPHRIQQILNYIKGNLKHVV
Procedure: as §1

HDAC10 = biological target: T4, HDAC10 (Homo sapiens, UniProt Q969S8); assay: ligand displacement TR-FRET assay, HDAC10; type: binding; design: host or cells: Sf21 insect cells (baculovirus); conditions: for IC50: ligand-displacement FRET assay, read-out: HDAC10 pIC50 (converted)
T4 sequence (Q969S8 1-669): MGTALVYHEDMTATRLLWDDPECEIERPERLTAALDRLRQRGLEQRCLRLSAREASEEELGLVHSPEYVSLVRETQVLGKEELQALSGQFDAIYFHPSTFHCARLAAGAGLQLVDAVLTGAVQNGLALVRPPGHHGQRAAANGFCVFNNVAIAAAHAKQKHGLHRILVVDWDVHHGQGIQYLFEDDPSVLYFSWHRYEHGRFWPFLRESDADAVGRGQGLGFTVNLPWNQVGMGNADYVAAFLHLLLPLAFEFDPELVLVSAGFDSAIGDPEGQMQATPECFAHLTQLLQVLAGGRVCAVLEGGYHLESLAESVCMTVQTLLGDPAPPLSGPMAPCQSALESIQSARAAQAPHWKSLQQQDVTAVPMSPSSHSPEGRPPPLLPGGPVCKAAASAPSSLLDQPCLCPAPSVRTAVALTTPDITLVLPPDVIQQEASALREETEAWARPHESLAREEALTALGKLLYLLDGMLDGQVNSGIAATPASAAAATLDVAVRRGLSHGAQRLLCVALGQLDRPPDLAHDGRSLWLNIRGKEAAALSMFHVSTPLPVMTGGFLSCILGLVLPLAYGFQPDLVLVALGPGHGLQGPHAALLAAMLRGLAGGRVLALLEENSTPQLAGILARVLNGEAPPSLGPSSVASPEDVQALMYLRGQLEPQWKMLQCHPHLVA
Procedure: Expression and purification of TwinStrepII‐GST‐HDAC10: A synthetic gene encoding TwinStrepII‐GST‐HDAC10 (human) was ordered from GeneArt (Thermo Fischer Scientific) and subcloned into the pFastBac1 vector. The resulting construct was used for transposition in E. coli DH10EMBacY cells. The isolated bacmid DNA was then used to generate the recombinant baculovirus. For protein expression, 10 mL of baculovirus was added to 1 L of Sf21 cells at a density of 1×10^6 cells/mL. The infected Sf21 cells were grown for 72 h in Sf‐900 III SFM medium (Thermo Fischer Scientific) at 27 °C. Cells were harvested by centrifugation and re‐suspended in running buffer (100 mM Tris pH 8.0, 150 mM NaCl, 1 mM EDTA and 1 mM DTT) supplemented with 10 mM MgCl2, benzonase and cOmplete protease inhibitors (Merck). […] The clarified lysate was then loaded onto a 5 mL Strep‐Tactin Superflow high capacity column (IBA) pre‐equilibrated in running buffer. After sample loading and washing, the TwinStrepII‐GST‐HDAC10 protein was eluted in running buffer supplemented with 5 mM desthiobiotin (IBA). The elution fractions containing TwinStrepII‐GST‐HDAC10 were pooled and concentrated before being injected onto a HiLoad 16/600 Superdex 200 pg size exclusion chromatography column (GE Healthcare) pre‐equilibrated with 25 mM HEPES/NaCl pH 7.5, 150 mM NaCl, 0.5 mM EDTA, 1 mM DTT and 10 % glycerol. Samples were eluted from the size exclusion chromatography column in the same buffer, flash‐frozen in liquid N2 and stored at −80 °C.
The TR‐FRET measurements of the monohydroxamic acids in this manuscript were measured in the original assay format, which is described directly below this paragraph. The TR‐FRET measurements of the dihydroxamic acids in this manuscript were measured in the modified format, which is described two paragraphs below this one.
The concentrations of reagents in 10 μL final assay volume were 3 nM GST‐HDAC10, 30 nM “Tubastatin‐Alexa647‐Tracer” and 0.5 nM Eu‐anti‐GST. GST‐HDAC10 and LanthaScreen™ Eu‐anti‐GST Antibody were purchased from Life Technologies, and the Tubastatin‐Alexa647‐Tracer was synthesized in‐house as previously described.19 An 11‐fold 1 : 3‐serial dilution of compounds starting at 2 mM was prepared in 384 well pp‐plates (Greiner) from 10 mM stocks in DMSO and 1 μL was transferred to assay plates. Nine μL of the reagent‐mix was added and the plate was incubated for 1 h at RT before TR‐FRET was measured in an EnVision™ plate reader equipped with a TR‐FRET Laser module. […] Percent inhibition was calculated for each well from negative control wells containing 2 % DMSO and positive control wells containing 20 μM SAHA. The resulting dose‐response curves were fitted in ActivityBase (IDBS) using a four‐parameter logistic model and pIC50‐values were calculated.
After drug dosing to the premixed assay reagents in buffer, plates were shaken (800 rpm orbital shaker, 30 s), centrifuged (300 g, 1 min) and incubated at room temperature in the dark for 60 min. TR‐FRET was measured with a CLARIOstar (BMG Labtech) plate reader, equipped with TR‐FRET filters.

T2 sequence (Q13547 whole entry): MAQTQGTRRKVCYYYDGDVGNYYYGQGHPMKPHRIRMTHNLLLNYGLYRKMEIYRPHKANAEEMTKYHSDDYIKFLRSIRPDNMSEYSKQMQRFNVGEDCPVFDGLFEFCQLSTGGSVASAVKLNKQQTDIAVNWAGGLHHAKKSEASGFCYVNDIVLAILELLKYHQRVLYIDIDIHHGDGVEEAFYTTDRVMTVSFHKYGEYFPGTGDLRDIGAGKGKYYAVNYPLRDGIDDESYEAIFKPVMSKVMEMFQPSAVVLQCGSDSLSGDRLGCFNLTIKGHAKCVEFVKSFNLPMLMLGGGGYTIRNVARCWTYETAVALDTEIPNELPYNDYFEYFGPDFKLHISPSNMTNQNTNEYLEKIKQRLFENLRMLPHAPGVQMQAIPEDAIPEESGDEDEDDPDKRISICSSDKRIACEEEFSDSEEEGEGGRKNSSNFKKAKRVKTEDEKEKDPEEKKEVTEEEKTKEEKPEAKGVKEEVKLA
T1 sequence (O15379 whole entry): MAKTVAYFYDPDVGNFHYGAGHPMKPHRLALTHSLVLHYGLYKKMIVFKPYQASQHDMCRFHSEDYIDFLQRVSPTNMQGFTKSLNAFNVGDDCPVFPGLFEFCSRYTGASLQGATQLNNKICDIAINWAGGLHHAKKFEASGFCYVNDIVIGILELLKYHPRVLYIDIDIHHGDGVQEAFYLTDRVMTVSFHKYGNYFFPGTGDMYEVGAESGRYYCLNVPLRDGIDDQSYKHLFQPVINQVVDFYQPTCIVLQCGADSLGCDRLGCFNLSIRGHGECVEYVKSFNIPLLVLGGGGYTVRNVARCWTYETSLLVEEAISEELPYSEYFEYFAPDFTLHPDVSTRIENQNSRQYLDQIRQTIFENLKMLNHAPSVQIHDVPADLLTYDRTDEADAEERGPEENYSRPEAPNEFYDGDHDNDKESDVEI
T1 sequence (Q9Y618 395-489 partner limits assumed): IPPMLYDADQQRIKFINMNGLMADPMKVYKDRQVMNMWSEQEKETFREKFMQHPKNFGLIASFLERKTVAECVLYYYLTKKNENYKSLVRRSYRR

| IC50 (HDAC3/NcoR2 complex) [nM] | IC50 (HDAC1) [nM] | IC50 (HDAC8) [nM] | increase in HDAC10 potency over the monohydroxamic acid 1f (HDAC10; FRET assay, 3f versus 1f) [factor] | IC50 (HDAC10) [nM] | SMILES |
| --- | --- | --- | --- | --- | --- |
| 1320 | 87.1 | 42.7 | ~70 | 3.39 | O=C(NO)c1ccc(Cn2ncc3ccc(C(=O)NO)cc32)cc1 [Compound 3f] |
| 13500 | 501 | 513 | – | 12.3 | CN1CCc2c(c3ccc(C(=O)NO)cc3n2Cc2ccc(C(=O)NO)cc2)C1 [Compound 3c] |
| 6920 | 617 | 166 | – | 2.82 | CN(C)Cc1cn(Cc2ccc(C(=O)NO)cc2)c2cc(C(=O)NO)ccc12 [Compound 3b] |
| 6610 | 813 | 66.1 | – | 3.02 | CN(C)CCn1cc(Cc2ccc(C(=O)NO)cc2)c2cc(C(=O)NO)ccc21 [Compound 3e] |
| 6610 | 661 | 89.1 | – | 3.98 | CN(C)Cc1nn(Cc2ccc(C(=O)NO)cc2)c2cc(C(=O)NO)ccc12 [Compound 3g] |
| 6460 | 525 | 97.7 | – | 3.24 | O=C(NO)c1ccc(Cc2c[nH]c3ccc(C(=O)NO)cc23)cc1 [Compound 3d] |
| – | – | 851 | – | 19.5 | CN(C)Cc1nn(Cc2ccc(C(=O)NO)cc2)c2ccccc12 [Compound 1g] |
| 5500 | 263 | 67.6 | – | 2.57 | O=C(NO)c1ccc(Cn2ccc3ccc(C(=O)NO)cc32)cc1 [Compound 3a] |

Source: PMC7335359, “Design and Synthesis of Dihydroxamic Acids as HDAC6/8/10 Inhibitors” (Chemmedchem, 2020)
